{"source": "patent US6849593B1", "about": "“Bifidogenic peptides” (Pharis Biotec GmbH, priority 1997, dated 2005)", "tested_on": "Bifidobacterium bifidum ATCC 29521", "assay": "bifidogenic activity: growth test with bifidobacteria in combination with a growth test with E. coli", "type": "cell-based", "conditions": "growth of Bifidobacterium bifidum (50% Elliker broth, anaerobic, 37° C., 16 hours) relative to growth of E. coli K12 (3 g/l tryptic soy broth, 16 hours); desalted HPLC fractions from pepsin-treated human milk", "procedure": "This object is achieved by peptides having the features of claim 1. […]\nFor each assay, cultures of E. coli K12 were freshly inoculated in tryptic soy broth (Sigma, Deisenhofen, Germany, order No. T8907) (Difco Manual, 10th ed., p. 1027). […] The photometric absorption of the inoculum was 0.05, measured at 500 nm. The growth of the bacteria under the influence of the peptides was also photometrically determined in an ELISA reader after 16 hours and manually determined by microscopy.\nFor each assay, cultures of Bifidobacterium bifidum ATCC 29521 were freshly inoculated in Elliker broth (Difco, Detroit, USA) (tryptone 20 g, yeast extract 5 g, gelatin 2.5 g, dextrose 5 g, lactose 5 g, saccharose 5 g, sodium chloride 4 g, sodium acetate 1.5 g, ascorbic acid 0.5 g). […] The photometric absorption of the inoculum was 0.05, measured at 550 nm. The growth of the bacteria under the influence of the peptides was also photometrically determined in an ELISA reader after 16 hours and manually determined by microscopy. […]", "data": [{"sequence": "GRRRRSVQWCAVSQPEATKCFQWQRNMRKVRGPPVSCIKRDSPICCIQA (GRRRSVQWCAVSQPEATKCFQWQRNMRKVRGPPVSCIKRDSPIQCIQA) [neutrophile lactoferrin-20-67, bifidogenic component of fraction 10, peptide isolated from pepsin-treated human milk]", "values": [{"measurement": "bifidogenic activity", "value": "bifidogenic"}]}, {"sequence": "YQRRPAIAINNPYVPRTYYANPAVVRPHAQIPQRQYLPNSHPPTVVRRPLPSF (YQRRPAIAINNPYVPRTYYANPAVVRPHAQIPQRQYLPNSHPPTVVRRPNLHPSF) [casein K-63-117, pure bifidogenic component of fraction 9, peptide isolated from pepsin-treated human milk]", "values": [{"measurement": "bifidogenic activity", "value": "bifidogenic"}]}]}
